# Experiments:
# [1] = system: tonsil-derived human MSCs; test: Determination of NAC pretreatment concentration (cell viability); conditions: NAC 10 mM, pretreatment for 24 hours; FIG. 1
# Procedure: In order to determine the concentration of NAC for pretreatment of tonsil-derived human MSCs, the tonsil-derived human MSCs were pretreated with NAC prepared in Example 1 at concentrations of 2, 4, 6, 8, 10, 15, and 100 mM for 24 hours, and then cell viability was evaluated.
# [2] = system: tonsil-derived human MSCs (hMSC-T, passage 6); test: Cell viability upon NAC treatment (WST, absorbance at 450 nm) with PYBR challenge; assay type: cell-based; conditions: NAC pretreatment 10 mM and 20 mM for 24 hours, then PYBR 5, 10, 20 μg/mL for 24 hours; FIG. 3
# Procedure: In order to evaluate cell viability upon NAC treatment, tonsil-derived human MSCs (hMSC-T, passage 6) were seeded in a culture medium at a density of 1×10^3 cells/well. On the following day, NAC was treated at concentrations of 10 mM and 20 mM for 24 hours. Thereafter, the cells were washed with PBS and the medium was replaced, followed by treatment with PYBR at concentrations of 5, 10, and 20 μg/mL. After 24 hours, the cells were washed three times with PBS and transferred to fresh medium (100 μL) containing 10 μL of WST solution, and incubated at 37° C. for 2 hours in the dark. Absorbance at 450 nm was then measured to evaluate cell viability (FIG. 2). A group not treated with NAC was used as a positive control.
# [3] = system: tonsil-derived human MSCs (hMSC-T, passage 6); test: Antioxidant activity (ROS assay) with PYBR challenge; assay type: cell-based; conditions: NAC pretreatment 10 mM and 20 mM for 24 hours, then PYBR 5, 10, 20 μg/mL for 24 hours; FIG. 5
# Procedure: In order to evaluate antioxidant activity upon NAC treatment, tonsil-derived human MSCs (hMSC-T, passage 6) were seeded in a culture medium at a density of 1×10^4 cells/well. On the following day, NAC was treated at concentrations of 10 mM and 20 mM for 24 hours. Thereafter, the cells were washed with PBS and the medium was replaced, followed by treatment with PYBR at concentrations of 5, 10, and 20 μg/mL. After 24 hours, the cells were washed three times with PBS and incubated in 100 μL of ROS working solution at 37° C. for 30 minutes in the dark. Absorbance was then measured at 488/525 nm (FIG. 4). A group not treated with NAC was used as a positive control.
smiles,measurement,setting,value
"CC(=O)NC(CS)C(=O)O (stereo not drawn) [NAC, 2-acetamido-3-sulfanylpropanoic acid]",cytotoxicity (cell viability),[1],no cytotoxicity was observed
same,cell viability after PYBR treatment,[2],significantly restored cell viability
same,ROS levels after PYBR treatment,[3],significantly reduced ROS levels

# Reference: US20260165948A1, “A COMPOSITION FOR SKIN REGENERATION COMPRISING A CULTURE MEDIUM OF TONSIL-DERIVED MESENCHYMAL STEM CELLS, THE ANTIOXIDANT EFFECT OF WHICH IS ENHANCED BY N-ACETYLCYSTEINE (NAC)” (priority 2023, published 2026)
